Data on 11 molecules can be found in ChEMBL document CHEMBL1201862, “PubChem BioAssay data set” (2004).

Some test systems named below: A498; A549; CCRF-CEM; EKVX; HCC 2998; HOP-92; Hs-578T; IGROV-1; MDA-N; NCI-H522; NCI/ADR-RES; OVCAR-4; OVCAR-5; OVCAR-8; PC-3; SF-539; SK-MEL-5; T47D; UACC-62.
What all share (test): NCI tumour cell line growth inhibition, 48 h

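Exposure lasted 48 hours, with cells grown in 96-well plates and compounds tested at five concentrations. GI50 marks 50% less growth.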 Activity calls are given as the source filed them. No stated cut-off is given here; in the data, active = GI50 up to about 1.1 µM and inactive = higher.

Regarding `N#Cc1c(N)c2c(c(-c3ccccc3)c1-c1ccccc1)C(=O)N(NC(=O)c1ccccc1)C2=O`, the GI50 was 41.9 µM (inactive) in the test on A498; > 100 µM (inactive) in the test on A549; 42.3 µM (inactive) in the test on CCRF-CEM; > 100 µM (inactive) with EKVX; > 100 µM (inactive) in the test with HCC 2998; 60.5 µM (inactive) in the test with HOP-92. For the same molecule, the GI50 in the test on Hs-578T was 90.6 µM (inactive); with IGROV-1, 61.4 µM (inactive); in the test on MDA-N, 72.6 µM (inactive); in the test with NCI-H522, 81.7 µM (inactive); in the test with NCI/ADR-RES, 89.5 µM (inactive); with OVCAR-4, > 100 µM (inactive). In addition, the GI50 in the test with OVCAR-5 was > 100 µM (inactive); with OVCAR-8, > 100 µM (inactive); with PC-3 it was 65.2 µM (inactive); with SF-539, 64.4 µM (inactive); in the test with SK-MEL-5 it was 68.7 µM (inactive); with T47D it was 32.1 µM (inactive). Also, in the test on UACC-62, the GI50 is 75.9 µM (inactive).
With `O=C1c2ccccc2C(=O)c2c(Nc3ccc4c5c(cccc35)C(=O)c3ccccc3-4)cccc21`, the GI50 with A498, in the test with A549, in the test with EKVX, with HCC 2998, in the test on HOP-92 and with Hs-578T was > 100 µM (inactive) in each case. Moreover, the GI50 in the test on IGROV-1 was 71.1 µM (inactive); in the test on MDA-N, > 100 µM (inactive); with NCI-H522 it was > 100 µM (inactive); with NCI/ADR-RES it was > 100 µM (inactive); in the test with OVCAR-4, > 100 µM (inactive); with OVCAR-5 it was > 100 µM (inactive). For the same molecule, the GI50 in the test on PC-3, with SK-MEL-5, in the test with T47D and in the test with UACC-62 was > 100 µM (inactive) throughout.
Regarding `CCCCCCCCCCCCCCCCOP(=O)(O)OP(=O)(O)OCC1OC(n2cnc3c(N)ncnc32)C(O)C1O` (stereo not drawn), the GI50 in the test on A498 was > 100 µM (inactive); in the test with A549, > 100 µM (inactive); in the test on CCRF-CEM, 30.5 µM (inactive); with EKVX it was > 100 µM (inactive); in the test on HCC 2998, 52.1 µM (inactive); with HOP-92, 19.1 µM (inactive). Also, the GI50 with Hs-578T was 43.8 µM (inactive); in the test with IGROV-1 it was 66.8 µM (inactive); in the test with MDA-N, 75.9 µM (inactive); with NCI-H522, 19.9 µM (inactive); in the test on NCI/ADR-RES it was 78.9 µM (inactive); in the test with OVCAR-4, > 100 µM (inactive). Further, the GI50 in the test with OVCAR-5 is 11.5 µM (inactive); in the test on OVCAR-8 it was 39.8 µM (inactive); in the test with PC-3, 38.2 µM (inactive); in the test on SK-MEL-5, > 100 µM (inactive); in the test with T47D, > 100 µM (inactive); in the test on UACC-62, 58.7 µM (inactive).
Turning to `O=c1[nH]/c(=C/c2ccc(OCc3ccccc3)cn2)c(=O)[nH]/c1=C/c1ccc(O)cc1`, the GI50 in the test with A498 was > 37.2 µM (inactive); in the test with A549, 3.05 µM (inactive); in the test on CCRF-CEM it was 0.0454 µM (active); with EKVX, 2.71 µM (inactive); with HCC 2998, 0.991 µM (active); in the test with HOP-92, 11.6 µM (inactive). Further, the GI50 in the test on Hs-578T is 1.67 µM (inactive); in the test on IGROV-1 it was 0.764 µM (active); with MDA-N, 0.129 µM (active); with NCI-H522, 0.276 µM (active); with NCI/ADR-RES it was 0.774 µM (active); in the test on OVCAR-4, 0.219 µM (active). Also, the GI50 in the test on OVCAR-5 was 8.32 µM (inactive); with OVCAR-8, 0.877 µM (active); with PC-3, 1.13 µM (inactive); in the test with SF-539, 0.461 µM (active); in the test on SK-MEL-5 it was 2.07 µM (inactive); with T47D it was 1.76 µM (inactive). The GI50 with UACC-62 was 1.58 µM (inactive).
Turning to `COC(=O)/C=C/c1ccc2c(c1)CC1(C2)Cc2cc3c(cc2C1=O)CCC3` (stereo not drawn), the GI50 is > 100 µM (inactive) in the test on A498; 40.3 µM (inactive) in the test on A549; > 100 µM (inactive) with CCRF-CEM; 55.6 µM (inactive) in the test on EKVX; > 100 µM (inactive) with HCC 2998; 35.3 µM (inactive) with HOP-92. The GI50 with Hs-578T was 25.2 µM (inactive); with IGROV-1, 24.3 µM (inactive); in the test with MDA-N, > 100 µM (inactive); in the test with NCI-H522, 31.1 µM (inactive); in the test on NCI/ADR-RES it was 42.5 µM (inactive); with OVCAR-4 it was 43.2 µM (inactive). Besides, the GI50 in the test with OVCAR-8 was 25.1 µM (inactive); in the test with PC-3, 88.9 µM (inactive); in the test on SF-539 it was 31 µM (inactive); in the test with SK-MEL-5, 74.8 µM (inactive); with T47D, 11.1 µM (inactive); with UACC-62, > 100 µM (inactive).
For `COc1cc(CNC(=O)[C@H](Cc2ccc(O)cn2)NC(C)=O)cc(OC)c1`, the GI50 was > 100 µM (inactive) with A498; > 100 µM (inactive) in the test on A549; > 100 µM (inactive) in the test on CCRF-CEM; 60 µM (inactive) in the test with EKVX; > 100 µM (inactive) in the test with HCC 2998; 13.2 µM (inactive) in the test with HOP-92. Besides, the GI50 in the test on Hs-578T is > 100 µM (inactive); with IGROV-1, 36.3 µM (inactive); with MDA-N, > 100 µM (inactive); in the test on NCI-H522, > 100 µM (inactive); with NCI/ADR-RES it was > 100 µM (inactive); with OVCAR-4 it was > 100 µM (inactive). In addition, the GI50 in the test on OVCAR-5 is > 100 µM (inactive); in the test with PC-3 it was 99.3 µM (inactive); in the test with SF-539, > 100 µM (inactive); in the test on SK-MEL-5, 67 µM (inactive); in the test on T47D it was 75 µM (inactive); with UACC-62 it was 80.9 µM (inactive).
Regarding `CCOC(=O)c1cccc(/N=N/Nc2cccc(C(=O)OCC)c2)c1`, the GI50 in the test on A498 was 30.8 µM (inactive); in the test on A549, 74.5 µM (inactive); in the test with CCRF-CEM, > 100 µM (inactive); in the test with EKVX, 57.8 µM (inactive); in the test on HCC 2998 it was > 100 µM (inactive); in the test on HOP-92 it was 22.3 µM (inactive). In addition, the GI50 is 30.8 µM (inactive) in the test on Hs-578T; 38.9 µM (inactive) in the test with IGROV-1; 5.66 µM (inactive) with MDA-N; 23.9 µM (inactive) with NCI-H522; 56.9 µM (inactive) with NCI/ADR-RES; 20.9 µM (inactive) in the test on OVCAR-4. In addition, the GI50 in the test on OVCAR-5 is 78.7 µM (inactive); with OVCAR-8 it was 25.5 µM (inactive); in the test with PC-3, 34.4 µM (inactive); in the test on SF-539 it was 14.2 µM (inactive); in the test with SK-MEL-5 it was 23.4 µM (inactive); in the test on T47D it was > 100 µM (inactive). For the same molecule, the GI50 in the test on UACC-62 was 71.8 µM (inactive).
In the case of `O=C(O)/C=C(/C(=O)O)C12CCN3CC4=CCOC5CC(=O)NC1C5C4CC32` (stereo not drawn), the GI50 in the test with A498, with A549, in the test on CCRF-CEM, in the test on EKVX, with HOP-92 and in the test with Hs-578T was > 100 µM (inactive) each time. The GI50 in the test on IGROV-1, in the test on MDA-N, with NCI-H522, in the test with NCI/ADR-RES, in the test with OVCAR-4 and with OVCAR-5 was > 100 µM (inactive) throughout. Besides, the GI50 in the test on OVCAR-8, in the test with PC-3, with SF-539, with SK-MEL-5, with T47D and with UACC-62 was > 100 µM (inactive) each time.
With `c1ccc(CSC(SCc2ccccc2)c2ccc3c(c2)OCO3)cc1`, the GI50 in the test on A498, with A549, in the test with CCRF-CEM, in the test with EKVX, with HCC 2998 and with HOP-92 was > 10 µM (inactive) throughout. The GI50 in the test on Hs-578T, with IGROV-1, with MDA-N, in the test with NCI-H522, in the test on NCI/ADR-RES and in the test with OVCAR-4 was > 10 µM (inactive) each time. The GI50 in the test on OVCAR-8, with PC-3, in the test with SF-539, in the test with SK-MEL-5, in the test with T47D and in the test with UACC-62 was > 10 µM (inactive) each time.
Consider `O=C(O)CN1C(=O)CN=C(c2ccccn2)c2cc(Cl)ccc21`, for which the GI50 in the test on A498, in the test on A549, with EKVX, in the test on HOP-92, in the test with Hs-578T and with IGROV-1 was > 100 µM (inactive) throughout. Besides, the GI50 in the test on MDA-N, in the test with NCI-H522, in the test on NCI/ADR-RES, with OVCAR-4, with OVCAR-5 and with OVCAR-8 was > 100 µM (inactive) in each case. Besides, the GI50 in the test with PC-3, in the test on SF-539, with SK-MEL-5, with T47D and in the test with UACC-62 was > 100 µM (inactive) each time.
As to `COc1ccc(-c2nnc3nc4ccccc4n3c2O)cc1`, the GI50 in the test on A498 is > 100 µM (inactive); in the test on A549, > 100 µM (inactive); in the test on CCRF-CEM, > 100 µM (inactive); with EKVX, > 100 µM (inactive); in the test with HCC 2998 it was > 100 µM (inactive); in the test with HOP-92, 54 µM (inactive). The GI50 with Hs-578T, in the test with IGROV-1, with MDA-N, in the test with NCI-H522, in the test on NCI/ADR-RES and with OVCAR-4 was > 100 µM (inactive) in each case. The GI50 in the test with OVCAR-5, in the test on OVCAR-8, in the test with PC-3, in the test with SF-539, in the test with SK-MEL-5 and in the test on T47D was > 100 µM (inactive) in each case.
